Experimental findings from US7344734B2, “Powder formulation” (Rijksuniversiteit Groningen, priority 2000, dated 2008) are described below.

Common to all, as to assay type: physicochemical
Series [1] can be described thus: Dry laser diffraction analysis of Colistin powder (RODOS dispersion). The procedure:
A lactose size fraction of 106-150 μm, derived from 100 M lactose (DMV International, Veghel, The Netherlands) was used as excipient. The fraction was prepared by subsequent vibratory sieving (20 minutes in a Fritsch Analysette 3, Idar-Oberstein, Germany) and air jet sieving (10 minutes in an Alpine A200, Augsburg, Germany) of small quantities (approx. 50 g) of the starting material. Micronized Colistin was prepared by fluid energy milling (GfM, Hamburg, Germany), but because the size distribution of the active ingredient was not satisfactory, size reduction of the crystalline material was continued for 26.5 hours in a ball mill (50 g in a container of 750 ml, filled with ceramic balls of different sizes to a filling degree of 67%). The container was placed on a home constructed drive. Size distributions before and after milling in the ball mill were measured with laser diffraction technique (Fraunhofer theory, using Sympatec HELOS Compact, model KA with 100 mm lens) using dry dispersion with a RODOS disperser at 4 bar.

Series [2] is described as follows: Laser diffraction analysis of the aerosol cloud from the test inhaler (cyclone). Particulars: 60 l/min, 20 mg per inhalation, lactose fraction 63-106 μm, mean of 6 inhalations. The method, then:
Inhalation experiments with the mixture were performed at 60 l/min with a test inhaler (see FIG. 1), having the same disintegration principle (cyclone) as the Colistin dry powder inhaler (prototype). […]
(§1) The aerosol cloud from the inhaler was characterized with a laser diffraction technique (Sympatec HELOS Compact, model KA with 100 mm lens) using the Fraunhofer theory. A special inhaler adapter was used in order to adjust the required flow rate through the inhaler device. The adapter consisted of a cylindrical chamber with side tubes connecting the adapter at both sides to the housing of the laser diffraction apparatus. The inhaler device was connected to the front of the adapter, whereas the vacuum system was connected to the rear end of the adapter. Thus, a closed system was created through which the flow rate can be controlled very carefully and in which the aerosol cloud passes the laser beam for the measurement. Standard HELOS software was used: start and stop of the measurement was triggered on channel 32 with 0.1% difference in optical signal (compared with the signal during reference measurement). The mass fraction of the dose delivered by the inhaler was not analyzed during these experiments (no particle collector in line with the adapter).
II The physical mixture with 83.3% Colistin was also tested with the test inhaler at 20, 30, 40 and 50 l/min. […]

Series [3] is described as follows: Laser diffraction analysis of the aerosol cloud from the Pharmachemie Cyclohaler (ISF inhaler). Particulars: 60 l/min, 10 mg per capsule, six inhalations.
Excerpt: as §1
Pure micronized Colistin was also inhaled with a commercial DPI (Pharmachemie Cyclohaler equals ISF Inhaler equals Novartis Foradil Inhaler, see FIG. 3), using the same (laser diffraction) procedures. Six hard gelatin capsules (no. 3) were filled with 10 mg per capsule and the capsules were sealed before use. Inhalation time was 3 seconds. […]

Where [4] appears, read: primary Colistin particles, RODOS dispersion.

In the case of Colistin, the “mean diameter (X50-value)” value in series [1] (after size reduction in the ball mill (26.5 hours), RODOS dispersion, n=3) is 2.14 μm; in series [1] (before size reduction in the ball mill, RODOS disperser at 4 bar), 6.43 μm. For the same substance, the X100-value in series [1] (after size reduction in the ball mill, RODOS dispersion) is on record as 87.0 μm; in series [1] (before size reduction in the ball mill, RODOS dispersion), 51.0 μm. Further, the “X-50 (μm) From cum. undersize curve” value in series [1] (setting [4]) worked out at 2.1 μm; in series [2], 2.3 μm. Further, the entries for the “X-90 (μm) From cum. Undersize curve” value in series [1] (setting [4]) and in series [2] were 31.0 μm and 7.5 μm, respectively. Besides, the “average median diameter for the aerosol cloud” value in series [3] is listed as 18.23 micron.
